Measured values reported in patent publication US9421492B2, “Aminopyridine derivatives for removal of hydrogen sulfide from a gas mixture” (Dow Global Technologies LLC, priority 2011, dated 2016).

Test: Solubility in unbuffered water
Conditions: unbuffered de-ionized water, 25° C., average of three experiments
Source text: The experiment is repeated three times and the average solubilities are reported as weight percent (wt %) in Table 1.

Row | Compound | Solubility, wt %
1 | 1-hydroxyethyl-4-pyridynyl-pyperazine [HEPP] | 60 wt %
2 | Cc1cc(N(C)C)cc(C)n1 [DMAPL, 2,6-dimethyl-4-(dimethylamino)pyridine] | 3 wt %
3 | CN(C)c1ccncc1 [DMAP, 4-dimethylaminopyridine] | 8 wt %
4 | Cc1cc(N(C)C)ccn1 [DMAPP, 2-methyl-4-(dimethylamino)pyridine] | 5 wt %
